Several values for one entry are separate records, joined by “and”; a condition that tells them apart may be missing. Identical values can stand only once.
The compounds below were run against PDE V (Homo sapiens, UniProt O76074) (assay: PDE V isoenzyme inhibition (IC50)). Settings: concentration required to provide 50% inhibition of PDE V.
Format: biochemical
From the text: The compounds of the invention can be useful for inhibiting PDE V isoenzymes. Isoenzyme activities and isoenzyme selectivities for particular compounds can be evaluated in a number of ways.

| Structure (SMILES) | IC50 |
| --- | --- |
| CCN1C(=O)c2c(nc(NC3CCOCC3)n2Cc2ccc(O)c(Br)c2)N2CCN=C12 [Compound 1] | ≤ 10 nM |
| CCN1C(=O)c2c(nc(NC3CCOCC3)n2Cc2ccc(O)c(Cl)c2)N2CCN=C12 [Compound 2] | < 8 nM |
| CCN1C(=O)c2c(nc(C(=O)OC)n2Cc2cc(Cl)c3c(c2)CCO3)N2C[C@@H](Cc3ccccc3)N=C12 [Compound 4] | ≤ 6 nM |
| CCN1C(=O)c2c(nc(NC3CCCCC3)n2Cc2ccc(O)c(Cl)c2)N2C1=N[C@@H]1CCC[C@@H]12 [Compound 5] | ≤ 6 nM |
| CCN1C(=O)c2nc(C#Cc3ccccc3)n(Cc3ccc(OC(C)=O)cc3)c2N2CC3(CCCC3)N=C12 [Compound 7] | ≤ 5 nM |
| CCN1C(=O)c2c(nc(C(N)=O)n2Cc2cc(Br)c3c(c2)CCO3)N2C[C@@H](Cc3ccccc3)N=C12 [Compound 8] | ≤ 5 nM |
| CCN1C(=O)c2c(nc(NC3CCCCC3)n2Cc2ccc(O)c(Br)c2)N2C[C@@H](Cc3ccccc3)N=C12 [Compound 9] | ≤ 5 nM |
| CCN1C(=O)c2c(nc(NC3CCCCC3)n2Cc2ccc(O)c(Br)c2)N2C1=N[C@@H]1CCC[C@@H]12 [Compound 12] | ≤ 5 nM |
| CCN1C(=O)c2c(nc(OCc3ccccc3)n2Cc2ccc(O)c(Cl)c2)N2C[C@@H](Cc3ccccc3)N=C12 [Compound 13] | ≤ 5 nM |
| CCN1C(=O)c2c(nc(NC3CCOCC3)n2Cc2ccc(OC)c(Cl)c2)N2CCN=C12 [Compound 16] | ≤ 10 nM and ≤ 5 nM and ≤ 6 nM and ~1.5 nM |
| CCN1C(=O)c2c(nc(NC3CCOCC3)n2Cc2ccc(O)c(C)c2)N2CCN=C12 [Compound 30] | ~52 nM |
| CCN1C(=O)c2c(nc(OC)n2Cc2ccc(OC)c(C#N)c2)N2C[C@@H](Cc3ccccc3)N=C12 [Compound 34] | ≤ 10 nM and ~10 nM |
| CCN1C(=O)c2c(nc(NC3CCOCC3)n2Cc2cc(Cl)c3c(c2)CCO3)N2CCN=C12 [Compound 35] | ~18 nM |
| CCN1C(=O)c2c(nc(NC3CCOCC3)n2Cc2cc(Br)c3c(c2)CCO3)N2CCN=C12 [Compound 36] | ~18 nM |
| CCN1C(=O)c2c(nc(C#Cc3ccccc3)n2Cc2cc(Cl)c(OC)c(Cl)c2)N2CC3(CCCC3)N=C12 [Compound 44] | ≤ 5 nM |
| CCOc1nc2c(n1Cc1ccc(O)c(Br)c1)C(=O)N(CC)C1=N[C@H](Cc3ccccc3F)CN12 [Compound 54] | ≤ 5 nM |

Further lines, results first:

| IC50 | Structure (SMILES) |
| --- | --- |
| ≤ 10 nM | CCN1C(=O)c2c(nc(Br)n2Cc2cc(Br)c3c(c2)CCO3)N2C[C@@H](Cc3ccccc3)N=C12 [Compound 3] |
| ≤ 5 nM | CCN1C(=O)c2c(ncn2Cc2cc(Cl)c3c(c2)CCO3)N2C[C@@H](Cc3ccccc3)N=C12 [Compound 6] |
| ≤ 5 nM | CCN1C(=O)c2c(nc(C(N)=O)n2Cc2cc(Cl)c3c(c2)CCO3)N2C[C@@H](Cc3ccccc3)N=C12 [Compound 10] |
| ≤ 5 nM | CCN1C(=O)c2c(nc(C=NO)n2Cc2ccc(O)c(Cl)c2)N2C[C@@H](Cc3ccccc3)N=C12 [Compound 11] |
| ≤ 5 nM | CCN1C(=O)c2c(nc(NC3CCCCC3)n2Cc2ccc(OC)c(Br)c2)N2CCN=C12 [Compound 14] |
| ≤ 5 nM | CCN1C(=O)c2c(nc(Br)n2Cc2cc(Cl)c3c(c2)CCO3)N2C[C@@H](Cc3ccccc3)N=C12 [Compound 15] |
| ≤ 5 nM | CCN1C(=O)c2c(nc(NC3CCCCC3)n2Cc2ccc(OC)c(Br)c2)N2C1=N[C@@H]1CCC[C@@H]12 [Compound 17] |
| ≤ 5 nM | CCN1C(=O)c2c(nc(NC3CCOCC3)n2Cc2ccc(OC)c(Br)c2)N2CCN=C12 [Compound 18] |
| ≤ 5 nM | CCN1C(=O)c2c(nc(C#Cc3ccccc3)n2Cc2ccc(O)c(Cl)c2)N2C[C@@H](Cc3ccccc3)N=C12 [Compound 19] |
| ≤ 5 nM | CCN1C(=O)c2c(nc(NC3CCOCC3)n2Cc2ccc(OC)c(Br)c2)N2CCCN=C12 [Compound 20] |
| ≤ 10 nM | CCN1C(=O)c2c(nc(NC3CCOCC3)n2Cc2ccc(OC)c(Cl)c2)N2CCCN=C12 [Compound 21] |
| ≤ 5 nM | CCN1C(=O)c2nc(C#Cc3ccccc3)n(Cc3ccc(O)cc3)c2N2CC3(CCCC3)N=C12 [Compound 22] |
| ≤ 5 nM | CCN1C(=O)c2c(nc(NC3CCCCC3)n2Cc2ccc(OC)c(Cl)c2)N2CCN=C12 [Compound 42] |
| ≤ 5 nM | CCN1C(=O)c2c(nc(NC3CCCC3)n2Cc2ccc(OC)c(Cl)c2)N2CCN=C12 [Compound 43] |
| ≤ 5 nM | CCN1C(=O)c2c(nc(N[C@@H]3CCC[C@H]3O)n2Cc2ccc(OC)c(Br)c2)N2C1=NCC2C (stereo partly drawn) [Compound 56] |
| ≤ 10 nM | CCN1C(=O)c2c(nc(NC3CCSCC3)n2Cc2ccc(OC)c(Cl)c2)N2CCN=C12 [Compound 57] |
| ≤ 5 nM | CCN1C(=O)c2c(nc(NC3CCSCC3)n2Cc2ccc(OC)c(Br)c2)N2CCN=C12 [Compound 58] |
| ≤ 10 nM | CCN1C(=O)c2c(nc(N[C@@H]3CC[C@H](O)C3)n2Cc2ccc(OC)c(Br)c2)N2CCN=C12 [Compound 59] |

Same assay, conditions: enzyme selectivity, PDE V relative to PDE VI

| ratio of PDE VI IC50/PDE V IC50 | Structure (SMILES) |
| --- | --- |
| > 600 | CCN1C(=O)c2c(nc(NC3CCOCC3)n2Cc2ccc(O)c(Cl)c2)N2CCN=C12 [Compound 2] |
| > 190 | CCN1C(=O)c2c(nc(NC3CCOCC3)n2Cc2ccc(O)c(C)c2)N2CCN=C12 [Compound 30] |

Reference: US6969719B2, “Polycyclic guanine phosphodiesterase V inhibitors” (Schering Corporation, priority 2001, dated 2005)
